Assay results taken from patent US11649222B2, “Compounds” (UNIVERSITETET I OSLO, priority 2016, dated 2023).
“And” between values parts separate entries of the source, which are not always exact repeats. Equal entries are not always repeated.

What was measured:
[1] = system: Klebsiella pneumoniae strain 50752501 harbouring NDM-1; assay: In vivo peritonitis infection study in neutropenic mice; design: Score at sampling: scale not given here; details: for Blood log CFU/ml mean / Blood log CFU/ml / Score at sampling / Pf log CFU/ml mean / Pf log CFU/ml: sampling T = 5; for Blood log CFU/ml / Score at sampling / Pf log CFU/ml: individual mice; for Pf log CFU/ml mean / Pf log CFU/ml: peritoneal fluid
Experimental: The purpose of this study was to investigate the synergy between a typical example of the present invention and a state of art carbapenem in a clinically relevant multiresistant Gram-negative bacterial strain harboring a metallo-β-lactamase in the treatment of live mice infected with the bacterial strain.
The mice were rendered neutropenic by injecting 0.5 ml cyclophosphamide solution intraperitoneally 4 days (approximately 200 mg/kg) and 1 day (approximately 100 mg/kg) prior to inoculation.
Fresh overnight colonies from a 5% Horse Blood Agar plate were suspended and diluted in sterile saline to approximately and 10^7 CFU/ml. Mice were inoculated intraperitoneally with 0.5 ml of the suspension. Approximately ½ hr prior to inoculation, mice were treated orally with 45 μl neurophen (20 mg ibuprofen/ml corresponding to approximately 30 mg/kg) as a pain relief.
Mice were treated subcutaneously in the neck region with.
Colony counts were determined from blood and peritoneal fluid at 1 and 5 hrs post inoculation. […] The mice were sacrificed immediately after blood sampling and a total of 2 ml sterile saline was injected i.p. and the abdomen gently massaged before it was opened and fluid sampled with a pipette. Each sample was then 10 fold serial diluted in saline and 20-μl spots, ranging from undiluted to a 10^6 dilution, were applied on agar plates in duplicates. […] All agar plates were incubated 18-22 hrs at 35° C. in ambient air.

[2] = system: K. pneumonia 50627996 (NDM-1); assay: Checkerboard MIC, Example 26 and meropenem; assay type: cell-based
Experimental: (§1) A checkerboard MIC assay was using the broth dilution method according to CLSI guidelines. […] Dilutions to 4 mg/ml was performed by adding+4.75 ml sterile saline to 0.25 ml of the stock solution, and dilutions to 512 μg/ml was performed by adding 10.9 ml MH-broth to the 4 mg/ml solution. Inoculums of bacterial strains as described in Table 4 were prepared by suspending fresh overnight colonies from 5% horse blood agar were to a turbidity of 0.5 McFarland and further diluted to 1×10^6 CFU/ml in MH-broth. Aliquots of 50 μl of MH-broth were added to each well of polystyrene microtiter plates. […] The plates were incubated at 35° C., 16-20 hours.

E. coli AMA817 (NDM-1) = assay: Checkerboard MIC, Example 26 and meropenem; assay type: cell-based
Experimental: as §1

[3] = system: K. pneumonia 50690310 (NDM-1); assay: Checkerboard MIC, Example 26 and meropenem; assay type: cell-based
Experimental: as §1

E. coli AMA1563 (NDM-5) = assay: Checkerboard MIC, Example 26 and meropenem; assay type: cell-based
Experimental: as §1

E. coli AMA323 (VIM-4) = assay: Checkerboard MIC, Example 26 and meropenem; assay type: cell-based
Experimental: as §1

E. coli 50676002 (NDM-1) = assay: Checkerboard MIC, Example 26 and meropenem; assay type: cell-based
Experimental: as §1

[4] = system: K. pneumonia 50825040 (NDM-1); assay: Checkerboard MIC, Example 26 and meropenem; assay type: cell-based
Experimental: as §1

[5] = system: K. pneumonia K45-67 (VIM-1); assay: Checkerboard MIC, Example 26 and meropenem; assay type: cell-based
Experimental: as §1

[6] = system: K. pneumonia 50752501 (NDM-1); assay: Checkerboard MIC, Example 26 and meropenem; assay type: cell-based
Experimental: as §1

[7] = system: K. pneumonia 50877064 (NDM-1); assay: Checkerboard MIC, Example 26 and meropenem; assay type: cell-based
Experimental: as §1

[8] = system: K. pneumonia K66-45 (NDM-1); assay: Checkerboard MIC, Example 26 and meropenem; assay type: cell-based
Experimental: as §1

E. coli 50739822 (NDM-1) = assay: Checkerboard MIC, Example 26 and meropenem; assay type: cell-based
Experimental: as §1

E. coli 50921466 (VIM-1) = assay: Checkerboard MIC, Example 26 and meropenem; assay type: cell-based
Experimental: as §1

[9] = system: K. pneumonia 50923744 (VIM); assay: Checkerboard MIC, Example 26 and meropenem; assay type: cell-based
Experimental: as §1

[10] = system: K. pneumonia K46-62 (VIM-1); assay: Checkerboard MIC, Example 26 and meropenem; assay type: cell-based
Experimental: as §1

[11] = Example 26 10 mg/kg s.c. + meropenem 33 mg/kg
[12] = Example 26 10 mg/kg s.c. + vehicle
[13] = Example 26 10 mg/kg s.c. + vehicle, 10 mg/kg
[14] = Example 26 33 mg/kg s.c. + meropenem 33 mg/kg
[15] = Example 26 33 mg/kg s.c. + vehicle
[16] = Example 26 33 mg/kg s.c. + vehicle, 33 mg/kg
[17] = Example 26 100 mg/kg s.c. + meropenem 33 mg/kg
[18] = Example 26 100 mg/kg s.c. + vehicle
[19] = Example 26 100 mg/kg s.c. + vehicle, 100 mg/kg
[20] = combination treatment with Example 26 and meropenem
[21] = Klebsiella pneumoniae, read-out: MIC alone, Example 26
[22] = Escherichia coli, read-out: MIC alone, Example 26

CN(C[C@H](O)[C@@H](O)[C@H](O)[C@H](O)CO)C(=O)c1ccc(CN(Cc2ccccn2)Cc2ccccn2)nc1 [Example 26, 6-((bis(pyridin-2-ylmethyl)amino)methyl)-N-methyl-N-((2S,3R,4R,5R)-2,3,4,5,6-pentahydroxyhexyl)nicotinamide]
reduction of the CFU levels compared to vehicle treatment in blood and peritoneal fluid ([1]; 10-100 mg/kg Example 26 alone): did not result in reduction of the CFU levels | Blood log CFU/ml mean [1, 11]: 1.61 log CFU/ml | Blood log CFU/ml [1, 11]: 1.90 log CFU/ml and 1.00 log CFU/ml and 1.85 log CFU/ml and 1.70 log CFU/ml | Score at sampling [1, 11]: 2 | Blood log CFU/ml mean [1, 12]: 5.88 log CFU/ml | Score at sampling [1, 12]: 2 | Blood log CFU/ml [1, 13]: 6.02 log CFU/ml and 5.70 log CFU/ml and 5.90 log CFU/ml and 5.89 log CFU/ml | Blood log CFU/ml mean [1, 14]: 1.26 log CFU/ml | Blood log CFU/ml [1, 14]: 1.78 log CFU/ml (2×) and 1.00 log CFU/ml and 0.50 log CFU/ml | Score at sampling [1, 14]: 1 | Blood log CFU/ml mean [1, 15]: 5.89 log CFU/ml | Score at sampling [1, 15]: 1 | Blood log CFU/ml [1, 16]: 5.83 log CFU/ml and 5.54 log CFU/ml and 6.78 log CFU/ml and 5.40 log CFU/ml | Blood log CFU/ml mean [1, 17]: 1.18 log CFU/ml | Blood log CFU/ml [1, 17]: 1.30 log CFU/ml and 0.50 log CFU/ml and 1.90 log CFU/ml and 1.00 log CFU/ml | Score at sampling [1, 17]: 1 | Blood log CFU/ml mean [1, 18]: 5.84 log CFU/ml | Score at sampling [1, 18]: 1 | Blood log CFU/ml [1, 19]: 5.83 log CFU/ml and 6.05 log CFU/ml and 5.48 log CFU/ml and 6.02 log CFU/ml | lower CFU levels compared to vehicle treatment, blood [1, 20]: 3.95-4.38 log10 | lower CFU levels compared to vehicle treatment, peritoneal fluid [1, 20]: 3.57-3.66 log10 | Pf log CFU/ml mean [1, 11]: 3.83 log CFU/ml | Pf log CFU/ml [1, 11]: 4.18 log CFU/ml and 3.83 log CFU/ml and 3.60 log CFU/ml and 3.72 log CFU/ml | Pf log CFU/ml mean [1, 12]: 7.79 log CFU/ml | Pf log CFU/ml [1, 13]: 7.92 log CFU/ml and 7.68 log CFU/ml and 7.76 log CFU/ml and 7.81 log CFU/ml | Pf log CFU/ml mean [1, 14]: 3.80 log CFU/ml | Pf log CFU/ml [1, 14]: 3.88 log CFU/ml and 3.80 log CFU/ml and 3.68 log CFU/ml and 3.85 log CFU/ml | Pf log CFU/ml mean [1, 15]: 7.60 log CFU/ml | Pf log CFU/ml [1, 16]: 7.68 log CFU/ml and 7.51 log CFU/ml and 7.88 log CFU/ml and 7.35 log CFU/ml | Pf log CFU/ml mean [1, 17]: 3.74 log CFU/ml | Pf log CFU/ml [1, 17]: 3.65 log CFU/ml (2×) and 3.74 log CFU/ml and 3.92 log CFU/ml | Pf log CFU/ml mean [1, 18]: 7.93 log CFU/ml | Pf log CFU/ml [1, 19]: 8.24 log CFU/ml and 7.89 log CFU/ml and 7.63 log CFU/ml and 7.98 log CFU/ml | MIC [2, 21]: > 400 µg/mL | MIC in combination, Example 26 ([2]; with meropenem): 12.5 µg/mL | MIC (E. coli AMA817 (NDM-1); [22]): > 400 µg/mL | MIC in combination, Example 26 (E. coli AMA817 (NDM-1); with meropenem): 12.5 µg/mL | MIC [3, 21]: > 400 µg/mL | MIC in combination, Example 26 ([3]; with meropenem): 12.5 µg/mL | MIC (E. coli AMA1563 (NDM-5); [22]): > 400 µg/mL | MIC in combination, Example 26 (E. coli AMA1563 (NDM-5); with meropenem): 25 µg/mL | MIC (E. coli AMA323 (VIM-4); [22]): > 400 µg/mL | MIC in combination, Example 26 (E. coli AMA323 (VIM-4); with meropenem): 12.5 µg/mL | MIC (E. coli 50676002 (NDM-1); [22]): > 400 µg/mL | MIC in combination, Example 26 (E. coli 50676002 (NDM-1); with meropenem): 12.5 µg/mL | MIC [4, 21]: > 400 µg/mL | MIC in combination, Example 26 ([4]; with meropenem): 12.5 µg/mL | MIC [5, 21]: > 400 µg/mL | MIC in combination, Example 26 ([5]; with meropenem): 12.5 µg/mL | MIC [6, 21]: > 400 µg/mL | MIC in combination, Example 26 ([6]; with meropenem): 25 µg/mL | MIC [7, 21]: > 400 µg/mL | MIC in combination, Example 26 ([7]; with meropenem): 12.5 µg/mL | MIC [8, 21]: > 400 µg/mL | MIC in combination, Example 26 ([8]; with meropenem): 12.5 µg/mL | MIC (E. coli 50739822 (NDM-1); [22]): > 400 µg/mL | MIC in combination, Example 26 (E. coli 50739822 (NDM-1); with meropenem): 12.5 µg/mL | MIC (E. coli 50921466 (VIM-1); [22]): > 400 µg/mL | MIC in combination, Example 26 (E. coli 50921466 (VIM-1); with meropenem): 12.5 µg/mL | MIC [9, 21]: > 400 µg/mL | MIC in combination, Example 26 ([9]; with meropenem): 12.5 µg/mL | MIC [10, 21]: > 400 µg/mL | MIC in combination, Example 26 ([10]; with meropenem): 12.5 µg/mL
